Laboratory results published in US20240269113A1, “3-(2-(DIMETHYLAMINO)ETHYL)-1H-INDOL-4-yl DERIVATIVES” (priority 2023, published 2024).

Type: in vitro ADME
Procedure: The elimination rate constant and half-life (t1/2) were determined using Ln(MS response) vs time plots. […] The human plasma stability data are included in table A.

| SMILES | Human Plasma Maximum % Psilocin |
| --- | --- |
| CC(=O)N(C)CCOC(=O)Oc1cccc2[nH]cc(CCN(C)C)c12 [Compound 87, 3-(2-(dimethylamino)ethyl)-1H-indol-4-yl (2-(N-methylacetamido)ethyl) carbonate] | 91% |
| CN(C)CCc1c[nH]c2cccc(OC(=O)c3cccnc3)c12 [Compound 91, 3-(2-(dimethylamino)ethyl)-1H-indol-4-yl nicotinate] | 100% |
| CN(C)CCc1c[nH]c2cccc(OC(=O)CCCc3ccccc3)c12 [Compound 96, 3-(2-(dimethylamino)ethyl)-1H-indol-4-yl 4-phenylbutanoate] | 75% |
| CC(=O)Oc1ccccc1C(=O)Oc1cccc2[nH]cc(CCN(C)C)c12 [Compound 99, 3-(2-(dimethylamino)ethyl)-1H-indol4-yl 2-acetoxybenzoate] | 100% |
| CN(C)CCc1c[nH]c2cccc(OC(=O)Cc3ccccc3)c12 [Compound 176, 3-(2-(dimethylamino)ethyl)-1H-indol-4-yl 2-phenylacetate] | 100% |

Remark: another data set of the same source
Procedure: Psilocin was also run as an additional control to monitor psilocin formation in a semi-quantitative manner.
Samples were analysed by UHPLC-MS/MS—Waters™ Acquity UPLC system, Waters™ Xevo TQ-XS on a Waters™ Acquity UPLC® HSS T3 column (1.8 μm, 2.1 mm×30 mm), mobile phases were water+0.1% formic acid and methanol+0.1% formic acid.
In addition, the appearance of psilocin from test compounds was monitored and assessed (as a percentage) against control psilocin peaks (at Time 0) to provide a semi-quantitative measure of psilocin release.

| SMILES | Human Hepatocytes Maximum % Psilocin |
| --- | --- |
| CC(=O)Oc1ccccc1C(=O)Oc1cccc2[nH]cc(CCN(C)C)c12 [Compound 99, 3-(2-(dimethylamino)ethyl)-1H-indol4-yl 2-acetoxybenzoate] | 100% |
